According to PubChem BioAssay AID463229 (Broad Institute, 2010):
Active and inactive are the calls of the source.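 Rule for the calls: active = compounds raising the signal whose fitted half-maximal concentration is at or below their top tested dose (cut at about 25 µM in these data); inconclusive = flat fit at 30 to 70% activity, or a poor fit; inactive = the rest.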

Test system: INS-1E rat beta cells, no cytokines, CellTiter-Glo ATP, 48 h
Assay: ATP level change in INS-1E without cytokines, dose response, counter-screen for beta-cell apoptosis protection project, INS-1E rat cells, ATP luminescence, cherry pick (AID 463229)

Going from `O=[N+]([O-])c1ccccc1-c1cc(-c2ccccc2)cc(-c2ccccc2)[n+]1Cc1ccccc1Cl` to `Cc1cc(-c2ccccc2)cc(-c2ccccc2)[n+]1CCc1ccccc1`, the AC50 falls from 2.23 µM to under 0.195 µM.

First: O=C(NC(c1cccnc1)C(F)(F)F)c1cc(COc2ccc3c(c2)CCCC3)on1 (stereo not drawn)
Second: Cc1ccc(C(=O)NC2CCCc3c2cnn3-c2ccc(F)cc2F)cn1 (stereo not drawn)
The AC50 of the first is 1.5-fold lower: 4.62 µM for the first, 7.07 µM for the second.

`COc1cccc(N=Nc2ccc(O)c3ncccc23)c1` and `Cc1cccc(N=Nc2ccc(O)c3ncccc23)c1` are within 1.5-fold of each other in AC50: 6.47 µM for the first, 5 µM for the second.

Compared with `O=C(N/N=C/c1c(O)ccc2ccccc12)c1cccnc1`, `COc1ccc2cc(C(=O)N/N=C/c3sc4ccccc4c3O)ccc2c1` is 1.8-fold higher in AC50: 4.07 µM for the first, 7.3 µM for the second.

Compared with `Cc1ccc(-c2csc(NC(=O)c3c(C)noc3C)n2)s1`, `Cc1cc(C)nc(SCC(=O)Nc2ccnc3ccccc23)n1` is 1.6-fold higher in AC50: 4.85 µM for the first, 7.55 µM for the second.

Compared with `COc1ccc(C[C@H]2CN3C(=NC[C@@H]3Cc3ccccc3)N2CCNC(=O)CCC2CCCCC2)cc1`, `CNC[C@H](CC1CCCCC1)NC[C@H](Cc1ccccc1)NCCC12CC3CC(CC(C3)C1)C2` is 2.7-fold lower in AC50: 12.1 µM for the first, 4.44 µM for the second.

Compared with `CCOc1cc(/C=C2\CCC/C(=C\c3cc(Cl)c(O)c(OCC)c3)C2=O)cc(Cl)c1O`, `COc1cc(C(=O)Oc2c(CN3CCOCC3)cc(Cl)c3cccnc23)cc(OC)c1OC` is 1.8-fold higher in AC50: 7.28 µM for the first, 13.3 µM for the second.

First: CN1/C(=C\C(=O)C[n+]2ccc(C(=O)c3ccccc3)cc2)C(C)(C)c2ccccc21
Second: C=C1C(=O)C=C2CN(C(=O)c3ccccc3)[C@@](Cc3ccc(F)cc3)(C(=O)OC)[C@@H]12
The AC50 of the first is 2-fold lower: 1.26 µM for the first, 2.56 µM for the second.

First: Cc1cc(C)c(S(=O)(=O)/N=C2/C=C(Sc3ncn[nH]3)C(=O)c3ccccc32)cc1C
Second: CC1=C(CC(=O)c2ccc(Cl)cc2)C(=O)c2ccccc2C1=O
The AC50 of the first is 3.5-fold lower: 7.58 µM for the first, 26.6 µM for the second.

Compared with `COC(=O)c1cc(C)nc2c1C(=O)C(=O)C=C2N1CCOCC1`, `CCOc1ccc(C(=O)c2cc([N+](=O)[O-])ccc2N2CCOCC2)cc1` is 13-fold lower in AC50: 4.66 µM for the first, 0.371 µM for the second.

Going from `COc1ccc(-c2cc(-c3nc4ccccn4c3NCc3ccccc3)ccc2OC)cc1` to `CCCCCCSc1cc(-c2nc3ccc(C)cn3c2NCc2ccccc2)ccc1OC`, the AC50 rises from 0.992 µM to 6.2 µM (6.2-fold).

`CCCCn1c(NS(=O)(=O)c2ccccc2)c(S(=O)(=O)c2ccc(C)cc2)c2nc3ccccc3nc21` and `CC(C)CC[n+]1ccn(C2=C([O-])c3ccccc3C(=O)/C2=N\S(=O)(=O)c2ccccc2)c1` are within 1.5-fold of each other in AC50: 22.1 µM for the first, 22.9 µM for the second.

Compared with `Cc1cc(N/N=C/c2cccc(Cl)c2)nc(-n2nc(C)cc2C)n1`, `Oc1cccc2ccc(Nc3ccccn3)nc12` is 7.2-fold lower in AC50: 16.4 µM for the first, 2.27 µM for the second.

First: Cc1ccc(S(=O)(=O)N2CCN(c3ncnc4sccc34)CC2)cc1
Second: O=C(Nc1ccc(C(F)(F)F)cc1)C1CCN(S(=O)(=O)c2ccc(N3CCCC3=O)cc2)CC1
The AC50 of the first is 1.9-fold higher: 8.15 µM for the first, 4.37 µM for the second.

Going from `COc1ccccc1OCCCCOc1ccccc1C(C)=O` to `C/C(=N\NC(=O)c1ccccc1Cl)c1ccccn1`, the AC50 falls from 23 µM to 5.98 µM (3.8-fold).

`COc1ccc(-n2c(-c3ccc(Cl)cc3)c[n+]3c2CCc2ccccc2-3)cc1` and `COc1ccc(-n2c(-c3ccc(Br)cc3)c[n+]3c2CCc2ccccc2-3)cc1` are within 1.5-fold of each other in AC50: 1.78 µM for the first, 1.86 µM for the second.

First: COc1ccc2c(c1)C(=O)[C@H](O)[C@@H](c1ccc(OC)c(Br)c1)O2
Second: COc1cc(NC(=O)c2ccc([N+](=O)[O-])o2)ccc1NC(=O)c1cccs1
The AC50 of the first is 1.9-fold lower: 7.97 µM for the first, 15.2 µM for the second.

`Cc1ncc(CO)c(/C=N/NC(=O)c2cc3c(s2)CCCC3)c1O` and `O=C(N/N=C/c1cc([N+](=O)[O-])ccc1O)c1cccc2cc[nH]c12` are within 1.5-fold of each other in AC50: 5.92 µM for the first, 6.89 µM for the second.

First: CCC(C)c1ccc(NC(=S)NC2CCN(Cc3ccccc3)CC2)cc1 (stereo not drawn)
Second: Cc1ccc(-c2c[n+]3c(n2-c2ccccc2)SCC3)cc1
The AC50 of the first is 4-fold higher: 10.4 µM for the first, 2.63 µM for the second.

Compared with `CN(C)S(=O)(=O)c1ccc(Oc2ccc(S(=O)(=O)N(C)C)cc2)cc1`, `O=C1C(=O)c2ccccc2-c2ccccc21` is 9.2-fold lower in AC50: 9.29 µM for the first, 1.01 µM for the second.

`CC1=NNC(=O)/C1=C\c1cn(-c2ccccc2)nc1-c1cccs1` and `N#CCSc1nc2ccccc2c2nc3ccccc3n12` are within 1.5-fold of each other in AC50: 7.54 µM for the first, 10.3 µM for the second.

Going from `C=CCn1nc([N+](=O)[O-])nc1Sc1cccc2cccnc12` to `N#CC1=C(N)Oc2c(ccc3cccnc23)C1c1ccccc1` (stereo not drawn), the AC50 rises from 6.79 µM to 19.3 µM (2.8-fold).

First: CCCCCCCCCCCCCCCC[N+](C)(C)C
Second: CCCCCCCC[n+]1cccc2c3ccccc3ccc21
The AC50 of the first is 29-fold higher: 7.81 µM for the first, 0.273 µM for the second.

Going from `COC(=O)[C@@H](Cc1ccccc1)N(Cc1ccccc1)S(=O)(=O)N(Cc1ccccc1)[C@H](Cc1ccccc1)C(=O)OC` to `O=C(NNC(=O)c1cccnc1SCc1cccc([N+](=O)[O-])c1)c1ccc(F)cc1`, the AC50 rises from 4.27 µM to 15.8 µM (3.7-fold).

First: O=C1N/C(=N/N=C/c2ccccc2O)SC1Cc1ccc(F)cc1 (stereo not drawn)
Second: CCCNC(=O)c1ccc2c(=O)c(O)c(-c3cccc(Br)c3)[nH]c2c1
The AC50 of the first is 3.2-fold higher: 14.6 µM for the first, 4.63 µM for the second.

`Cn1c(-c2ccccc2)cc2c3no[n+]([O-])c3ccc21` and `CC(=O)c1c(C)[nH]c(C(=O)OCCCCN2C(=O)c3ccccc3C2=O)c1C` are within 1.5-fold of each other in AC50: 7.82 µM for the first, 6.54 µM for the second.

`COc1ccc(C(=O)NN/C(C)=C/C(=O)C(F)(F)C(F)(F)C(F)(F)F)cc1` was tested, and the AC50 was > 26 µM (inactive).
